# Data reported in publication PMC4209162, “Specific aromatic foldamers potently inhibit spontaneous and seeded Aβ42 and Aβ43 fibril assembly” (Biochemical Journal, 2014).
# Biological target: Aβ42 (Homo sapiens, UniProt P05067)
# Assay: Spontaneous Aβ42 fibrillization (ThT fluorescence, EM)
# Assay type: biochemical
# Conditions: not given
# Chain of Aβ42 (P05067 672-713 limits assumed): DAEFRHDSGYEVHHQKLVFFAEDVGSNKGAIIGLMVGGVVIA
row,Compound,IC50
1,COc1ccc(NC(=O)[C@H](CCCNC(N)=O)NC(=O)c2cc(NC(=O)[C@H](CCCNC(=N)N)NC(=O)c3cc(NC(=O)[C@H](CCCNC(=N)N)NC(=O)c4cc(NC(=O)[C@@H](N)CCCNC(=N)N)ccc4OC)ccc3OC)ccc2OC)cc1C(N)=O [(Arg-Sal)3-(Cit-Sal)-CONH2],~1600 nM

# Same assay, conditions: Aβ42 5 μM, foldamer 10 μM, 8 h, 25°C, agitation, ThT fluorescence (EM 4 h)
row,Compound,Inhibition of spontaneous Aβ42 fibrillization
1,(Lys-Sal)4-CONH2,ineffective
2,(Lys-Sal)2-CONH2,failed to inhibit assembly
3,(Arg-Sal-Cit-Sal)2-CONH2,ineffective
4,(Lys-Sal)4-COMe,ineffective
5,(Lys-Sal)3-CONH2,failed to inhibit assembly
6,(Lys-Sal)4-COβAla,ineffective
7,Ac-(Lys-Sal)3-CONH2,failed to inhibit assembly
8,Sal-(Lys-Sal)2-CONH2,failed to inhibit assembly
9,(Cit-Sal)-(Arg-Sal)-(Cit-Sal)2-CONH2,ineffective
10,(Arg-Sal)2-(Cit-Sal)-(Arg-Sal)-CONH2,ineffective
11,(Cit-Sal)2-(Arg-Sal)-(Cit-Sal)-CONH2,ineffective
12,(Lys-Sal)4-COOH,ineffective
13,Ac-(Lys-Sal)2-CONH2,failed to inhibit assembly

# Biological target: Aβ43 (Homo sapiens, UniProt P05067)
# Assay: Spontaneous Aβ43 fibrillization (ThT fluorescence, EM)
# Assay type: biochemical
# Conditions: not given
# Chain of Aβ43 (P05067 672-714 limits assumed): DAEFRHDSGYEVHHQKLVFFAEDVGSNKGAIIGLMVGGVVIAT
row,Compound,IC50
1,COc1ccc(NC(=O)[C@H](CCCNC(N)=O)NC(=O)c2cc(NC(=O)[C@H](CCCNC(=N)N)NC(=O)c3cc(NC(=O)[C@H](CCCNC(=N)N)NC(=O)c4cc(NC(=O)[C@@H](N)CCCNC(=N)N)ccc4OC)ccc3OC)ccc2OC)cc1C(N)=O [(Arg-Sal)3-(Cit-Sal)-CONH2],~3.1 µM
